This passage reports GI50 and TGI results from PubChem BioAssay (NCI).

Each structure is given as a SMILES string. Where “and” joins values, the source holds several entries; their conditions need not be identical. Identical values can stand only once.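 48-hour exposure; five concentrations; linearly interpolated endpoints. Abbreviation: GI50, concentration required for 50% inhibition of growth. The concentration for full growth arrest is given as TGI.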

What all share (test): NCI tumour cell line growth inhibition, 48 h
Experiment [1] relates to MDA-N.
The test system of experiment [2] is DMS 114 small cell lung.
In experiment [3] the test system is HOP-18 NSCLC.
Experiment [4] has as its system XF 498 CNS.
For experiment [5], the system named is KM20L2 colon.
Experiment [6] relates to DLD-1 colon.
Experiment [7] concerns DMS 273 small cell lung.
The test system of experiment [8] is RXF-631 renal.
For experiment [9], the system named is LXFL 529 NSCLC.

For `COc1cccc(N=N/C(=N\NC(=O)c2cc(Br)ccc2O)c2ccc(N(CCC#N)CCC#N)cc2OC)c1`, in [1], the GI50 is 59.3 mg/L and the TGI was greater than 150 mg/L.

Regarding `c1ccc(B2OCC(C3OB(c4ccccc4)OC4COB(c5ccccc5)OC43)O2)cc1` (configuration not stated), the TGI in [1] was greater than 100 µM.

As to `CCOC(=O)N1C(c2ccccc2)C=CC(c2ccccc2)N1C(=O)OCC` (configuration not stated), the TGI in experiment [2], in experiment [3], in experiment [4], in [5] and in [6] was greater than 100 µM in each case.

Turning to `COc1cc(/C=C\c2ccc(Br)cc2)cc(OC)c1OC`, the TGI in [7] is 13.8 µM; in experiment [2], 69.1 µM; in [8] it was greater than 100 µM; in [6], greater than 100 µM; in experiment [9], greater than 100 µM.

Take `Nc1cc(S(N)(=O)=O)ccc1SSc1ccc(S(N)(=O)=O)cc1N`: the TGI in [1] was greater than 100 µM.

Turning to `C=C1CCCC2[C@](C)(CC3=C(O)C(=O)C=C(OC)C3=O)[C@@H](C)CC[C@]12C` (some centres not stated), the TGI in [2] was 7.61 µM; in [3], 8.59 µM; in [4] it was 56.7 µM; in [5] it was 31.8 µM; in experiment [8] it was greater than 100 µM; in experiment [6], 69.1 µM. For the same compound, the TGI in [9] stood at 27.2 µM.

In the case of `O=C(N/C(=C\c1ccc(/C=C(\NC(=O)c2ccccc2)c2nc3ccccc3s2)cc1)c1nc2ccccc2s1)c1ccccc1`, the TGI was found to be 10.8 µM in experiment [7]; 25.9 µM in [2]; 26 µM in experiment [3]; 11.2 µM in experiment [5]; 20.6 µM in [8]; 12 µM in [6]. In [9], this compound registered a TGI of 10.9 µM.

`N#Cc1ccc(Oc2cccc(Oc3ccccc3)c2)cc1C#N`: the TGI in experiment [2], in experiment [5], in experiment [8], in experiment [6] and in [9] was greater than 100 µM each time. For the same compound, the GI50 in experiment [5] and in [6] was greater than 100 µM throughout.

As to `CC1(C(=O)O)CCOc2ccccc21` (configuration not stated), the TGI in experiment [2], in [3], in experiment [5], in experiment [6] and in [9] was greater than 100 µM in each case.

Regarding `Cc1nc2c(N3CCCC3)nc(N3CCNCC3)nc2nc1NCc1ccccc1`, in experiment [1], the GI50 is 4.38 µM; the TGI was 9.44 µM and 3.28 µM.

With `COC12CCC(C(C(=O)c3ccccc3)=C1C(=O)c1ccccc1)C(O)C2` (configuration not stated), the TGI in experiment [7], in experiment [2], in experiment [4], in [8], in experiment [6] and in experiment [9] was greater than 100 µM throughout.

As to `COc1nc2c(nc(N)n2C2OCC(O)C(O)C2O)c(=O)n1C` (configuration not stated), the TGI in experiment [2], in [3], in experiment [4], in experiment [5], in [6] and in experiment [9] was greater than 100 µM in each case.

`CCc1ccc2nccc(NCCCN(C)C)c2c1[N+](=O)[O-]`: in experiment [1], the TGI is greater than 100 µM.

As for `O=C1C(=O)N(c2nccs2)C(=O)C(=O)C1c1nc2ccccc2s1`, the TGI in experiment [7], in experiment [2], in experiment [3], in experiment [4], in experiment [5] and in [6] was greater than 100 µM in each case. The compound also returned a TGI in experiment [9] greater than 100 µM.

Compound `OCC(CCc1c[nH]c2ccccc12)c1c[nH]c2ccccc12` (configuration not stated) showed a TGI in experiment [1] of 31 µM.

In the case of `CC(=O)[O-].[Zn].c1ccc(/C(=N\Nc2ccccn2)c2ccccn2)cc1`, the TGI in experiment [7] amounted to 1.88 µM; in [2], 0.0192 µM; in [3], 0.918 µM; in [5], 1.75 µM; in [6], 2.49 µM; in [9], 1.79 µM.

Turning to `CCn1c(=O)c2ccccc2n2c(=O)c3cc4ccccc4cc3nc12`, the TGI was greater than 100 µM in [7]; greater than 100 µM in experiment [2]; 49 µM in experiment [4]; greater than 100 µM in experiment [5]; greater than 100 µM in experiment [6]; greater than 100 µM in [9].

On to `CCOC(=O)C1=C(Nc2ccc(Br)cc2)OC/C1=N\NC(=O)c1ccccc1O`, for which the TGI was 17 µM in [7]; greater than 100 µM in experiment [3]; greater than 100 µM in [5]; 97.3 µM in [6]; greater than 100 µM in experiment [9].

`Cc1cnccc1N=Nc1ccc(N(C)C)cc1` returned a TGI in experiment [1] of 69.3 µM.

Take `S=c1sc2cscc2s1`: the TGI in [7] was greater than 100 µM; in experiment [2] it was 45.2 µM; in [3] it was 67.2 µM; in experiment [4], 49.9 µM; in experiment [5] it was 66.5 µM; in experiment [8], 61 µM. Further, the TGI was determined as 50.6 µM in [6] and 38.6 µM in experiment [9].

Take `Cc1ccccc1C(=O)Oc1ccc(OCc2ccccc2)cc1`: the TGI in experiment [7], in experiment [2], in [3], in [4], in experiment [5] and in experiment [6] was greater than 100 µM in each case. In experiment [9], this compound yielded a TGI greater than 100 µM.

In experiment [1], `Clc1cc(-c2ccccc2)nc2ccccc12` returned a TGI greater than 100 µM.
